Key:
BTK = target: T1, BTK (Homo sapiens, UniProt Q06187); test: BTK kinase assay (HotSpot, 33P ATP); type: biochemical; settings: for BTK @ 0.1 μM (% Inh): 0.1 μM compound, 10 μM ATP; for IC50: 10 dose IC50, 10 μM ATP
T1 construct: purchased Reaction Biology Corporation
Procedure, shortened: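 In 20 mM Hepes (pH 7.5) with 10 mM MgCl2, 1 mM EGTA, 0.1 mM Na3VO4, 2 mM DTT, 0.02% Brij35, 0.02 mg/mL BSA and 1% DMSO, kinase and substrate were exposed to ten compound doses for 15–20 min.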

ITK = target: T2, ITK (Homo sapiens, UniProt Q08881); test: ITK kinase profiling (BTK protocol); type: biochemical; settings: 0.3 μM compound
T2 construct: purchased Reaction Biology Corporation
T2 sequence (Q08881 1-620): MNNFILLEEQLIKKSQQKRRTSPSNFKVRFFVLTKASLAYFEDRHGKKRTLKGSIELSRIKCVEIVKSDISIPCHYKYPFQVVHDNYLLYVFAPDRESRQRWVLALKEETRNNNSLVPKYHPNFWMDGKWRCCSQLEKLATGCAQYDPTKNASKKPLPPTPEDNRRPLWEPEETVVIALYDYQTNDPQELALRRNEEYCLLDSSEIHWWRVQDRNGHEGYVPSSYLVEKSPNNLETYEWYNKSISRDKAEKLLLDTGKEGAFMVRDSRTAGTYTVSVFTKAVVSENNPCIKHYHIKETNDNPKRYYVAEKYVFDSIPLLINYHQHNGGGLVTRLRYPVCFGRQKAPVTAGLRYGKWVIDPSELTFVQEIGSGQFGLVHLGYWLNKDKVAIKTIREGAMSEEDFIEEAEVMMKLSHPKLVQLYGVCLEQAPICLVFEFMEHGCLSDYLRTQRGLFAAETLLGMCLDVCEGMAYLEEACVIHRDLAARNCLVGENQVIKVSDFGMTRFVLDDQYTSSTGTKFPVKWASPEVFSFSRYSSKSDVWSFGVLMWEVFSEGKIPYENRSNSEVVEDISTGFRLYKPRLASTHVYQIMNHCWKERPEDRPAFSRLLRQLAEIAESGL
Method: (§1) BTK assay: In vitro profiling protein kinases was performed using the “HotSpot” assay platform. Briefly, specific kinase/substrate pairs along with required cofactors were prepared in reaction buffer. Compounds were prepared as 10 mM stock solutions in DMSO. Compounds were delivered into the reaction, followed 15-20 minutes later by addition of a mixture of ATP (Sigma, St. Louis Mo.) and ^33P ATP (Perkin Elmer, Waltham Mass.) to a final concentration of 10 μM. […] IC50 values and curve fits were obtained using Prism (GraphPad Software). Buffer Conditions: 20 mM Hepes (pH 7.5), 10 mM MgCl2, 1 mM EGTA, 0.02% Brij35, 0.02 mg/mL BSA, 0.1 mM Na3VO4, 2 mM DTT, 1% DMSO.

TEC = target: T3, TEC (Homo sapiens, UniProt P42680); test: TEC kinase profiling (BTK protocol); type: biochemical; settings: 0.3 μM compound
T3 construct: purchased Reaction Biology Corporation
T3 sequence (P42680 1-631): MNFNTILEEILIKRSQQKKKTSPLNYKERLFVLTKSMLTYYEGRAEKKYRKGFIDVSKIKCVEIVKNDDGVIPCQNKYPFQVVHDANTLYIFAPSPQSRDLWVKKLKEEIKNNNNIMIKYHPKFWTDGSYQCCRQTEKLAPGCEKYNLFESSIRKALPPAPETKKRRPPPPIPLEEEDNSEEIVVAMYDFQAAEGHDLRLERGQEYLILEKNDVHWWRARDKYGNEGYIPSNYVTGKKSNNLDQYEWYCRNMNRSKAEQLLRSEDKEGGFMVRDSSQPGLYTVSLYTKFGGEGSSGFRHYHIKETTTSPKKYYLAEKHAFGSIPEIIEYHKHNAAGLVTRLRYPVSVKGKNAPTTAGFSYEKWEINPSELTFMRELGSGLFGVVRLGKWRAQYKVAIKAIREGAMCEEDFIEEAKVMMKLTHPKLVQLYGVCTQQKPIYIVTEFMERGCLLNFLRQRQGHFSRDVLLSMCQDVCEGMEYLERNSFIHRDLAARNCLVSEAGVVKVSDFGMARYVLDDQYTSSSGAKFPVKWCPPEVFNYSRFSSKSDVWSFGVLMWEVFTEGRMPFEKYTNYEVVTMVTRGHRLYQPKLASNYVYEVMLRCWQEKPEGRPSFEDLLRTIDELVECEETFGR
Method: as §1

CD69+B220+ cells = test: B cell activation assay (IgD-stimulated splenocytes, CD69+B220+ cells by FACS); type: cell-based; settings: 100 nM compound, mouse splenocytes, IgD 3 μg/mL, 4 h
Procedure, shortened: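 Mouse splenocytes (female, ~2 months), red cells lysed, at 10^6 cells/mL, pretreated 30 min at 37 °C with 100 nM compound, then anti-IgD 3 μg/mL for 4 h. Read as CD69+B220+ cells as percentage of live B220+ cells by flow cytometry.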

PI3Kα = target: T4, PI3Kα (Homo sapiens, UniProt P42336); test: PI3Kα isoform profiling (PI3Kδ protocol); type: biochemical; settings: 0.3 μM compound
T4 construct: purchased Reaction Biology Corporation
Source text: PI3Kδ assay: The PIP3 product is detected by displacement of biotin-PIP3 from an energy transfer complex consisting of Europium labeled anti-GST monoclonal antibody, a GST-tagged pleckstrin homology (PH) domain, biotinylated PIP3 and Streptavidin-Allophycocyanin (APC). Excitation of Europium in the complex results in an energy transfer to the APC and a fluorescent emission at 665 nm. The PIP3 product formed by PI 3-Kinase(h) activity displaces biotin-PIP3 from the complex resulting in a loss of energy transfer and thus a decrease in signal. This is a 3-step reaction: First, the kinase reaction with PIP2 substrate is carried out in the presence of ATP (10 μM), and the reaction is quenched with stop Solution, and then finally detect by adding Detection Mixture followed by incubation (10 min). Reaction procedure: 1) Prepare substrate in freshly prepared Reaction Buffer. 2) Deliver kinase into the substrate solution and gently mix. 3) Deliver compounds in 100% DMSO (1 μM) into the kinase reaction mixture by Acoustic technology (Echo550; nanoliter range), incubate for 10 min at RT. 4) Deliver ATP into the reaction mixture to initiate the reaction. 5) Incubate for 30 min at 30° C. 6) Quench the reaction with Stop Solution. 7) Add Detection Mixture, and incubate for overnight. 8) Measure HTRF: Ex=320 nm, ratio of Em=615 nm and Em=665 nm. The emission ratio is converted into μM PIP3 production based on PIP3 standard curves. The nonlinear regression to obtain the standard curve and IC50 values are performed using Graphpad Prism software. Assay Buffer: HEPES 50 mM (pH7.0), NaN3 0.02%, BSA 0.01%, Orthovanadate 0.1 mM, 1% DMSO. Detection buffer: HEPES 10 mM (pH7.0), BSA 0.02%, KF 0.16 M, EDTA 4 mM. Substrate: 10 μM PIP2 substrate (PI(4,5)P2).
Compounds of the invention were profiled in a 10 dose IC50 panel against PI3Kα, PI3Kβ, and PI3Kγ kinases, provided by Reaction Biology Corporation, applied to the PI3Kδ protocol provided in Example B1.

T1 sequence (Q06187 whole entry): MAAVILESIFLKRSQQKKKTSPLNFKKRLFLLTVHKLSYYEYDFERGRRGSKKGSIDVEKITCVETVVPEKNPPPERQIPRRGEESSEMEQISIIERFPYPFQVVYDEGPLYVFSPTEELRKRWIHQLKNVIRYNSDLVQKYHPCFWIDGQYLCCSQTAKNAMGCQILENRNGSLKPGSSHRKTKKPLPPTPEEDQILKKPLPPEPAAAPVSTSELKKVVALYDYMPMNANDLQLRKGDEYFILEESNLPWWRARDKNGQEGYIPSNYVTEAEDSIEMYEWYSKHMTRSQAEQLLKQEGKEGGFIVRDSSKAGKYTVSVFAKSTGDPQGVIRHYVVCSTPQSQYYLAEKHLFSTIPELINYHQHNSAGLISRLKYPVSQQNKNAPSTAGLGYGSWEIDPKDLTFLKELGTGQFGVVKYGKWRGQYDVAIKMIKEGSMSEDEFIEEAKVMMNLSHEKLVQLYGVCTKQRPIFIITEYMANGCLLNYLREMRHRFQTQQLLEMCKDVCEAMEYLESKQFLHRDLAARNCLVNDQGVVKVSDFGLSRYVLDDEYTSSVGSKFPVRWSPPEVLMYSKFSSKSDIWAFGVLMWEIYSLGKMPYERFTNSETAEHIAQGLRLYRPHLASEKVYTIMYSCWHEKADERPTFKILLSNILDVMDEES
T4 sequence (P42336 whole entry, canonical isoform): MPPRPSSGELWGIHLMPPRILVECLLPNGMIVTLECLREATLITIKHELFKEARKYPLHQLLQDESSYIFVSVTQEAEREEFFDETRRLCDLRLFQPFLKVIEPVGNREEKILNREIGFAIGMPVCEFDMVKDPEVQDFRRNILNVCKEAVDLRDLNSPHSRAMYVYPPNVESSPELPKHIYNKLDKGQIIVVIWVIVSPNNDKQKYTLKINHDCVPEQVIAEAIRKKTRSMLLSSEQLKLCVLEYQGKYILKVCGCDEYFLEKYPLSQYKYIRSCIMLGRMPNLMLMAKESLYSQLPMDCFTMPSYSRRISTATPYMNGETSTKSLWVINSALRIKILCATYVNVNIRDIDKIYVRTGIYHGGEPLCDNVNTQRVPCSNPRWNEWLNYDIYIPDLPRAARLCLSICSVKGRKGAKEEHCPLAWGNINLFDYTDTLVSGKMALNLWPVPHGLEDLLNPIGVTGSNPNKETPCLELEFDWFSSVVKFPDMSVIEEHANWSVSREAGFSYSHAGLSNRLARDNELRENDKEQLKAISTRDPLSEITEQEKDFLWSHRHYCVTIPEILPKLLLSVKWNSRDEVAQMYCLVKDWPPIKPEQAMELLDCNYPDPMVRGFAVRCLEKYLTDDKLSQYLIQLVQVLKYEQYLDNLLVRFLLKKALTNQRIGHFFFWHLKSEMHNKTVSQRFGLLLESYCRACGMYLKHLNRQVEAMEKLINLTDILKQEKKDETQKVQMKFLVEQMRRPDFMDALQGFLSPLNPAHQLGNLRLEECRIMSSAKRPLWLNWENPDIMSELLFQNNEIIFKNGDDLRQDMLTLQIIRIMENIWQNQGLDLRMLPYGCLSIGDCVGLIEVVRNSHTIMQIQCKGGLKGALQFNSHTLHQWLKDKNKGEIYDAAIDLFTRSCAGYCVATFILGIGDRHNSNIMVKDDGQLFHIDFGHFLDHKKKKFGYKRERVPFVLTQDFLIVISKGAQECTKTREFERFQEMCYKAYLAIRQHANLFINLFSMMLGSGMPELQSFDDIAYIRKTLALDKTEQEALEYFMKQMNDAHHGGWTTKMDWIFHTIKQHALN
T4 sequence (P27986 whole entry partner, canonical isoform): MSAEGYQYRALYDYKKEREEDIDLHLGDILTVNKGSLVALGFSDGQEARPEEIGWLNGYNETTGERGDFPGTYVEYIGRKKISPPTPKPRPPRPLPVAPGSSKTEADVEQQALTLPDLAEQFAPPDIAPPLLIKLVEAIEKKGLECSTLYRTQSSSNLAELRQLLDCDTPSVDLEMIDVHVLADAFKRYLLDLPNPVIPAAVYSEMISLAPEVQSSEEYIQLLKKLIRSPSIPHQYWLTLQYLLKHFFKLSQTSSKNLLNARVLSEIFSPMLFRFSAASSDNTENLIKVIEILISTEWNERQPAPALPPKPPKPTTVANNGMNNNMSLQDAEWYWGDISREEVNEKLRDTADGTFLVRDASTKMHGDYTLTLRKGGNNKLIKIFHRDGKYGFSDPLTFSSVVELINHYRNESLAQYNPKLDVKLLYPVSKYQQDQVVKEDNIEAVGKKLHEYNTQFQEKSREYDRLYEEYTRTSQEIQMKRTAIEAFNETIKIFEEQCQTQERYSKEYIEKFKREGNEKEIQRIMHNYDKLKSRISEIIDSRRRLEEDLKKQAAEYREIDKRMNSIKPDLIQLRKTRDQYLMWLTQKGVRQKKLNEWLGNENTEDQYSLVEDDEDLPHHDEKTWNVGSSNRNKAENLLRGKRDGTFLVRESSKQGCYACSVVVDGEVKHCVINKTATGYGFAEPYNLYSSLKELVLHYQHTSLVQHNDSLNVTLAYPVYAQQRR

| Structure (SMILES) | BTK @ 0.1 μM (% Inh) (BTK) | IC50 (BTK) | ITK @ 0.3 μM (% Inh) (ITK) | TEC @ 0.3 μM (% Inh) (TEC) | CD69 @ 100 nM (% Inh) (CD69+B220+ cells) | PI3Kα @ 0.3 μM (% Inh) (PI3Kα) |
| --- | --- | --- | --- | --- | --- | --- |
| COc1ccc(-c2nn(C3CCc4ccccc4C3)c3ncnc(N)c23)cc1OC (racemic) [compound 17, 3-(3,4-dimethoxyphenyl)-1-(1,2,3,4-tetrahydronaphthalen-2-yl)-1H-pyrazolo[3,4-d]pyrimidin-4-amine] | 41.16 % Inh | 164 nM | −0.36 % Inh | 11.45 % Inh | 33.56 ± 13.70 (n = 5) % Inh | – |
| Nc1ncnc2c1c(-c1ccc(Br)c(O)c1)nn2C1CCc2ccccc2C1 (stereo not shown) [compound 8, 5-(4-amino-1-(1,2,3,4-tetrahydronaphthalen-2-yl)-1H-pyrazolo[3,4-d]pyrimidin-3-yl)-2-bromophenol] | 48.87 % Inh | 26.1 nM | 0.02 % Inh | 20.18 % Inh | – | 76.76 % Inh |

Reference: patent US20210317140A1, “Heterocyclic Compounds and Methods of Use” (MEDIVATION TECHNOLOGIES, INC, priority 2013, published 2021)
